In patent US20090036540A1, “Guanylhydrazones in Methods of Treatment or Diagnosis as Modulators of Signal Transduction” (Cytokine PharmaSciences, Inc., priority 2003, published 2009):
“Also recorded” adds a separate entry of the source.

What was measured:
[1] = system: Peripheral Blood Mononuclear Cells; experiment: PepChip kinome array: in vitro phosphorylation of peptide array by lysates of LPS-stimulated PBMCs; assay type: cell-based, human
Protocol: Peripheral Blood Mononuclear Cells (PBMCs) were isolated from peripheral blood from healthy volunteers using standard density-gradient centrifugation over Ficoll-Paque Plus (Amersham Pharmacia Biotech AB, Uppsala, Sweden) after washing in resuspension in IMDM supplemented with 10% FBS, penicillin, streptomycin and amphotericin (hereafter referred to as complete IMDM).
For kinome array samples, 10^7 PBMCs were suspended in 5 ml media (IMDM supplemented with 1.0% human serum). LPS stimulation consisted of a […] (37° C., 5% CO2) with 100 ng/ml LPS (E. coli, serotype 0111:B4). CNI treated PBMCs were maintained in media dosed with 1.0 μM CNI-1493 (Cytokine PharmaSciences, Inc.) 1 hour before and during incubation for LPS stimulation. Stimulations were terminated by an ice-cold PBS wash. PBMCs were lysed in 200 μl cell lysis buffer (20 mM Tris-HCl (pH 7.5), 150 mM NaCl, 1 mM Na2EDTA, 1 mM EGTA, 1% Triton, 2.5 mM sodium pyrophosphate, 1 mM MgCl2, 1 mM beta-glycerophosphate, 1 mM Na3VO4, 1 mM NaF, 1 μg/ml leupeptin, 1 μg/ml aprotinin, 1 mM PMSF) and the volume of the cell lysate were equalised with dH2O. The cell lysates were subsequently cleared on a 0.22 μm filter. PepChip incubation mix was produced by adding 10 μl of filter-cleared activation mix (50% glycerol, 50 μM ATP, 0.05% v/v Brij-35, 0.25 mg/ml BSA, ^33P-γ-ATP (1000 kBq)). Next, the PepChip mix is added onto the chip and the chip is kept at 37° C. in a humidified stove for 90 minutes. Subsequently, the PepChip was washed once with TBST, twice in 2M NaCl and twice in demineralised H2O and air-dry the PepChip slips. The experiments were performed three times in duplicate. The average inter-experimental variance in relative values was less than 5% for all spots.
The chips were exposed to a phosphoimager plate for 72 hours and the spots were analysed on AIDA analysing software. For graphical visualisation of the spots in FIG. 2 the data of four arrays was averaged to eliminate false positives.

pMek1/2 = experiment: Immunohistochemistry of biopsies from Crohn's disease patients for pMek1/2 expression; assay type: in vivo, human; details: before vs after treatment
Protocol: Biopsies obtained from Crohn's disease patients (before and after Semapimod treatment) who participated in the Semapimod-pilot study in the AMC, were analyzed by immunohistochemistry.
Biopsies obtained from Crohn's disease patients (before and after treatment) who participated in the Semapimod-pilot study performed in our department, were analyzed for pMek1/2 expression (the substrate of Raf) by immunohistochemistry (FIGS. 8-9).

[2] = lysates of Semapimod-treated, lipopolysaccharide-stimulated PBMCs

C/C(=N\NC(=N)N)c1cc(NC(=O)CCCCCCCCC(=O)Nc2cc(/C(C)=N/NC(=N)N)cc(/C(C)=N/NC(=N)N)c2)cc(/C(C)=N/NC(=N)N)c1 [Semapimod]
LPS + CNI: peptide phosphorylation, Kinase CaM-II, Substrate Vimentin ([1]; PBMC lysate, 1.0 μM CNI-1493, 100 ng/ml LPS, Control 6930, LPS 4147): 248 | LPS + CNI: peptide phosphorylation, Kinase Lck/Fyn, Substrate MHC-I ([1]; PBMC lysate, 1.0 μM CNI-1493, 100 ng/ml LPS, Control 7040, LPS 1370): 230 | LPS + CNI: peptide phosphorylation, Kinase not given, Substrate GS ([1]; PBMC lysate, 1.0 μM CNI-1493, 100 ng/ml LPS, Control 9758, LPS 17052): 24415 | LPS + CNI: peptide phosphorylation, Kinase p38, Substrate MAPKAP2 ([1]; PBMC lysate, 1.0 μM CNI-1493, 100 ng/ml LPS, Control 10168, LPS 21440): 1150 | LPS + CNI: peptide phosphorylation, Kinase PKC, Substrate c-Src ([1]; PBMC lysate, 1.0 μM CNI-1493, 100 ng/ml LPS, Control 10728, LPS 10416): 17000 | LPS + CNI: peptide phosphorylation, Kinase PKC, Substrate c-RAF ([1]; PBMC lysate, 1.0 μM CNI-1493, 100 ng/ml LPS, Control 10764, LPS 13640): 9522 | LPS + CNI: peptide phosphorylation, Kinase not given, Substrate Tau ([1]; PBMC lysate, 1.0 μM CNI-1493, 100 ng/ml LPS, Control 15846, LPS 10500): 27753 | LPS + CNI: peptide phosphorylation, Kinase v-Fps, Substrate Caldesmon ([1]; PBMC lysate, 1.0 μM CNI-1493, 100 ng/ml LPS, Control 16002, LPS 22800): 31584 | LPS + CNI: peptide phosphorylation, Kinase and Substrate not given ([1]; PBMC lysate, 1.0 μM CNI-1493, 100 ng/ml LPS, Control 16320, LPS 822): 300 | LPS + CNI: peptide phosphorylation, Kinase not given, Substrate GS ([1]; PBMC lysate, 1.0 μM CNI-1493, 100 ng/ml LPS, Control 16920, LPS 19500): 23664 | LPS + CNI: peptide phosphorylation, Kinase CKII, Substrate GS ([1]; PBMC lysate, 1.0 μM CNI-1493, 100 ng/ml LPS, Control 17680, LPS 5350): 13120 | LPS + CNI: peptide phosphorylation, Kinase Lck, Substrate Tec ([1]; PBMC lysate, 1.0 μM CNI-1493, 100 ng/ml LPS, Control 18096, LPS 13824): 300 | LPS + CNI: peptide phosphorylation, Kinase PKC, Substrate Trop ([1]; PBMC lysate, 1.0 μM CNI-1493, 100 ng/ml LPS, Control 18786, LPS 23230): 40000 | LPS + CNI: peptide phosphorylation, Kinase not given, Substrate GS ([1]; PBMC lysate, 1.0 μM CNI-1493, 100 ng/ml LPS, Control 20736, LPS 20592): 26477 | LPS + CNI: peptide phosphorylation, Kinase p34cdc2, Substrate Lamin B1 ([1]; PBMC lysate, 1.0 μM CNI-1493, 100 ng/ml LPS, Control 21000, LPS 11165): 300 | LPS + CNI: peptide phosphorylation, Kinase not given, Substrate EIF4F ([1]; PBMC lysate, 1.0 μM CNI-1493, 100 ng/ml LPS, Control 21000, LPS 25200): 24624 | LPS + CNI: peptide phosphorylation, Kinase PKC, Substrate BICKS ([1]; PBMC lysate, 1.0 μM CNI-1493, 100 ng/ml LPS, Control 23400, LPS 38086): 15980 | LPS + CNI: peptide phosphorylation, Kinase PKC, Substrate MARCKS ([1]; PBMC lysate, 1.0 μM CNI-1493, 100 ng/ml LPS, Control 23714, LPS 16401): 13426 | LPS + CNI: peptide phosphorylation, Kinase not given, Substrate MBP ([1]; PBMC lysate, 1.0 μM CNI-1493, 100 ng/ml LPS, Control 26208, LPS 36442): 51888 | LPS + CNI: peptide phosphorylation, Kinase not given, Substrate Vimentin ([1]; PBMC lysate, 1.0 μM CNI-1493, 100 ng/ml LPS, Control 26240, LPS 30889): 59840 | LPS + CNI: peptide phosphorylation, Kinase not given, Substrate MBP ([1]; PBMC lysate, 1.0 μM CNI-1493, 100 ng/ml LPS, Control 26481, LPS 23852): 51414 | LPS + CNI: peptide phosphorylation, Kinase p42/44, Substrate MBP ([1]; PBMC lysate, 1.0 μM CNI-1493, 100 ng/ml LPS, Control 28710, LPS 536): 23296 | LPS + CNI: peptide phosphorylation, Kinase not given, Substrate GS ([1]; PBMC lysate, 1.0 μM CNI-1493, 100 ng/ml LPS, Control 31500, LPS 31050): 51102 | LPS + CNI: peptide phosphorylation, Kinase p42/44, Substrate MBP ([1]; PBMC lysate, 1.0 μM CNI-1493, 100 ng/ml LPS, Control 33814, LPS 14514): 26352 | LPS + CNI: peptide phosphorylation, Kinase PKA, Substrate MARCKS ([1]; PBMC lysate, 1.0 μM CNI-1493, 100 ng/ml LPS, Control 34295, LPS 31647): 62514 | LPS + CNI: peptide phosphorylation, Kinase not given, Substrate c-Src ([1]; PBMC lysate, 1.0 μM CNI-1493, 100 ng/ml LPS, Control 34410, LPS 2470): 319 | LPS + CNI: peptide phosphorylation, Kinase not given, Substrate Vimentin ([1]; PBMC lysate, 1.0 μM CNI-1493, 100 ng/ml LPS, Control 37760, LPS 18020): 44200 | LPS + CNI: peptide phosphorylation, Kinase not given, Substrate MBP ([1]; PBMC lysate, 1.0 μM CNI-1493, 100 ng/ml LPS, Control 38634, LPS 36464): 38354 | LPS + CNI: peptide phosphorylation, Kinase not given, Substrate MBP ([1]; PBMC lysate, 1.0 μM CNI-1493, 100 ng/ml LPS, Control 40793, LPS 36600): 55572 | LPS + CNI: peptide phosphorylation, Kinase PKC, Substrate MBP ([1]; PBMC lysate, 1.0 μM CNI-1493, 100 ng/ml LPS, Control 47940, LPS 18624): 15680 | LPS + CNI: peptide phosphorylation, Kinase not given, Substrate MLC-2 ([1]; PBMC lysate, 1.0 μM CNI-1493, 100 ng/ml LPS, Control 48400, LPS 53482): 33674 | LPS + CNI: peptide phosphorylation, Kinase not given, Substrate MBP ([1]; PBMC lysate, 1.0 μM CNI-1493, 100 ng/ml LPS, Control 60630, LPS 62900): 65076 | LPS + CNI: peptide phosphorylation, Kinase PKA, p42/44, Substrate CgA ([1]; PBMC lysate, 1.0 μM CNI-1493, 100 ng/ml LPS, Control 62088, LPS 548): 6700 | capacity to phosphorylate peptides representing consensus sequences for MAP kinase family members [1, 2]: strongly impaired | phosphorylation of a peptide representing a consensus phosphorylation site for MEK kinase [1, 2]: inhibited | phosphorylation of a peptide representing the PKC consensus phosphorylation site in c-Raf [1, 2]: not impaired | pMek1/2 expression in biopsies, responders (pMek1/2; Crohn's disease patients who responded (n=5), p=0.0348): significant decrease | pMek1/2 expression in biopsies, nonresponder (pMek1/2; one nonresponder (patient 012)): increased pMek1/2 expression; also recorded: not affected
